Laboratory results: ChEMBL document CHEMBL4004821, “Design and synthesis of novel tetrandrine derivatives as potential anti-tumor agents against human hepatocellular carcinoma” (Eur J Med Chem, 2017)

Tested on: PLC-PRF-5
Assay: Cytotoxicity against human PLC/PRF/5 cells assessed as growth inhibition after 24 hrs by MTT assay
Assay type: functional, cell-based
Settings: PLC-PRF-5, 24 h

Row | SMILES | IC50
1 | COc1cc(NC(=O)CCCl)c2cc1Oc1ccc(cc1)C[C@H]1c3cc(c(OC)cc3CCN1C)Oc1c(OC)c(OC)cc3c1[C@H](C2)N(C)CC3 | 6.28 µM
2 | COc1cc(NC(=O)c2cc[nH]n2)c2cc1Oc1ccc(cc1)C[C@H]1c3cc(c(OC)cc3CCN1C)Oc1c(OC)c(OC)cc3c1[C@H](C2)N(C)CC3 | 2.24 µM
3 | COc1cc(NC(=O)CCCCl)c2cc1Oc1ccc(cc1)C[C@H]1c3cc(c(OC)cc3CCN1C)Oc1c(OC)c(OC)cc3c1[C@H](C2)N(C)CC3 | 7.22 µM
4 | COc1cc(NC(=O)c2ccc(Br)cc2)c2cc1Oc1ccc(cc1)C[C@H]1c3cc(c(OC)cc3CCN1C)Oc1c(OC)c(OC)cc3c1[C@H](C2)N(C)CC3 | 7.76 µM
5 | COc1cc(NC(=O)C=C(C)C)c2cc1Oc1ccc(cc1)C[C@H]1c3cc(c(OC)cc3CCN1C)Oc1c(OC)c(OC)cc3c1[C@H](C2)N(C)CC3 | 7.63 µM
6 | COc1cc(NC(=O)C2CC=CC2)c2cc1Oc1ccc(cc1)C[C@H]1c3cc(c(OC)cc3CCN1C)Oc1c(OC)c(OC)cc3c1[C@H](C2)N(C)CC3 | 6.42 µM
7 | CNC(=O)c1cc(Oc2ccc(NC(=O)Nc3ccc(Cl)c(C(F)(F)F)c3)cc2)ccn1 [SORAFENIB] | 29.9 µM
8 | COc1cc(NC(=O)c2ccc([N+](=O)[O-])o2)c2cc1Oc1ccc(cc1)C[C@H]1c3cc(c(OC)cc3CCN1C)Oc1c(OC)c(OC)cc3c1[C@H](C2)N(C)CC3 | 2.5 µM
9 | CCCCCC(=O)Nc1cc(OC)c2cc1C[C@H]1c3c(cc(OC)c(OC)c3Oc3cc4c(cc3OC)CCN(C)[C@H]4Cc3ccc(cc3)O2)CCN1C | 10.3 µM
10 | COc1cc(NC(=O)OCC(C)C)c2cc1Oc1ccc(cc1)C[C@H]1c3cc(c(OC)cc3CCN1C)Oc1c(OC)c(OC)cc3c1[C@H](C2)N(C)CC3 | 4.66 µM
11 | COc1cc(NC(=O)c2ccc(Cl)c(Cl)c2)c2cc1Oc1ccc(cc1)C[C@H]1c3cc(c(OC)cc3CCN1C)Oc1c(OC)c(OC)cc3c1[C@H](C2)N(C)CC3 | 6.82 µM
12 | COc1cc(NC(=O)c2ccc(C(F)(F)F)cc2)c2cc1Oc1ccc(cc1)C[C@H]1c3cc(c(OC)cc3CCN1C)Oc1c(OC)c(OC)cc3c1[C@H](C2)N(C)CC3 | 9.49 µM
13 | COc1cc(NC(=O)c2cccs2)c2cc1Oc1ccc(cc1)C[C@H]1c3cc(c(OC)cc3CCN1C)Oc1c(OC)c(OC)cc3c1[C@H](C2)N(C)CC3 | 9.01 µM
14 | COc1cc(NC(=O)c2cccc3ccccc23)c2cc1Oc1ccc(cc1)C[C@H]1c3cc(c(OC)cc3CCN1C)Oc1c(OC)c(OC)cc3c1[C@H](C2)N(C)CC3 | 5.56 µM
15 | COc1cc(NC(=O)C(Cl)(Cl)Cl)c2cc1Oc1ccc(cc1)C[C@H]1c3cc(c(OC)cc3CCN1C)Oc1c(OC)c(OC)cc3c1[C@H](C2)N(C)CC3 | 3.22 µM
16 | COc1cc(NC(=O)C2CCCO2)c2cc1Oc1ccc(cc1)C[C@H]1c3cc(c(OC)cc3CCN1C)Oc1c(OC)c(OC)cc3c1[C@H](C2)N(C)CC3 (stereo partly specified) | 7.32 µM
17 | COc1cc(NC(=O)C2CC2)c2cc1Oc1ccc(cc1)C[C@H]1c3cc(c(OC)cc3CCN1C)Oc1c(OC)c(OC)cc3c1[C@H](C2)N(C)CC3 | 6.45 µM
18 | COc1cc(NC(=O)c2c(Cl)cc(Cl)cc2Cl)c2cc1Oc1ccc(cc1)C[C@H]1c3cc(c(OC)cc3CCN1C)Oc1c(OC)c(OC)cc3c1[C@H](C2)N(C)CC3 | 6.54 µM

Tested on: not listed separately
Assay: Cytotoxicity against human MHCC97L cells assessed as growth inhibition after 24 hrs by MTT assay
Assay type: functional, cell-based
Settings: not given

Row | SMILES | IC50
19 | COc1cc(NC(=O)CCCl)c2cc1Oc1ccc(cc1)C[C@H]1c3cc(c(OC)cc3CCN1C)Oc1c(OC)c(OC)cc3c1[C@H](C2)N(C)CC3 | 9.21 µM
20 | COc1cc(NC(=O)c2cc[nH]n2)c2cc1Oc1ccc(cc1)C[C@H]1c3cc(c(OC)cc3CCN1C)Oc1c(OC)c(OC)cc3c1[C@H](C2)N(C)CC3 | 4.17 µM
21 | COc1cc(NC(=O)CCCCl)c2cc1Oc1ccc(cc1)C[C@H]1c3cc(c(OC)cc3CCN1C)Oc1c(OC)c(OC)cc3c1[C@H](C2)N(C)CC3 | 9.76 µM
22 | COc1cc(NC(=O)c2ccc(Br)cc2)c2cc1Oc1ccc(cc1)C[C@H]1c3cc(c(OC)cc3CCN1C)Oc1c(OC)c(OC)cc3c1[C@H](C2)N(C)CC3 | 4.4 µM
23 | COc1cc(NC(=O)C=C(C)C)c2cc1Oc1ccc(cc1)C[C@H]1c3cc(c(OC)cc3CCN1C)Oc1c(OC)c(OC)cc3c1[C@H](C2)N(C)CC3 | 6.31 µM
24 | COc1cc(NC(=O)C2CC=CC2)c2cc1Oc1ccc(cc1)C[C@H]1c3cc(c(OC)cc3CCN1C)Oc1c(OC)c(OC)cc3c1[C@H](C2)N(C)CC3 | 5.76 µM
25 | CNC(=O)c1cc(Oc2ccc(NC(=O)Nc3ccc(Cl)c(C(F)(F)F)c3)cc2)ccn1 [SORAFENIB] | 34.4 µM
26 | COc1cc(NC(=O)c2ccc([N+](=O)[O-])o2)c2cc1Oc1ccc(cc1)C[C@H]1c3cc(c(OC)cc3CCN1C)Oc1c(OC)c(OC)cc3c1[C@H](C2)N(C)CC3 | 2.11 µM
27 | CCCCCC(=O)Nc1cc(OC)c2cc1C[C@H]1c3c(cc(OC)c(OC)c3Oc3cc4c(cc3OC)CCN(C)[C@H]4Cc3ccc(cc3)O2)CCN1C | 12.6 µM
28 | COc1cc(NC(=O)OCC(C)C)c2cc1Oc1ccc(cc1)C[C@H]1c3cc(c(OC)cc3CCN1C)Oc1c(OC)c(OC)cc3c1[C@H](C2)N(C)CC3 | 1.4 µM
29 | COc1cc(NC(=O)c2ccc(Cl)c(Cl)c2)c2cc1Oc1ccc(cc1)C[C@H]1c3cc(c(OC)cc3CCN1C)Oc1c(OC)c(OC)cc3c1[C@H](C2)N(C)CC3 | 3.81 µM
30 | COc1cc(NC(=O)c2ccc(C(F)(F)F)cc2)c2cc1Oc1ccc(cc1)C[C@H]1c3cc(c(OC)cc3CCN1C)Oc1c(OC)c(OC)cc3c1[C@H](C2)N(C)CC3 | 8.41 µM
31 | COc1cc(NC(=O)c2cccs2)c2cc1Oc1ccc(cc1)C[C@H]1c3cc(c(OC)cc3CCN1C)Oc1c(OC)c(OC)cc3c1[C@H](C2)N(C)CC3 | 11.9 µM
32 | COc1cc(NC(=O)c2cccc3ccccc23)c2cc1Oc1ccc(cc1)C[C@H]1c3cc(c(OC)cc3CCN1C)Oc1c(OC)c(OC)cc3c1[C@H](C2)N(C)CC3 | 5.63 µM
33 | COc1cc(NC(=O)C(Cl)(Cl)Cl)c2cc1Oc1ccc(cc1)C[C@H]1c3cc(c(OC)cc3CCN1C)Oc1c(OC)c(OC)cc3c1[C@H](C2)N(C)CC3 | 4.26 µM
34 | COc1cc(NC(=O)C2CCCO2)c2cc1Oc1ccc(cc1)C[C@H]1c3cc(c(OC)cc3CCN1C)Oc1c(OC)c(OC)cc3c1[C@H](C2)N(C)CC3 (stereo partly specified) | 5.66 µM
35 | COc1cc(NC(=O)C2CC2)c2cc1Oc1ccc(cc1)C[C@H]1c3cc(c(OC)cc3CCN1C)Oc1c(OC)c(OC)cc3c1[C@H](C2)N(C)CC3 | 7.68 µM
36 | COc1cc(NC(=O)c2c(Cl)cc(Cl)cc2Cl)c2cc1Oc1ccc(cc1)C[C@H]1c3cc(c(OC)cc3CCN1C)Oc1c(OC)c(OC)cc3c1[C@H](C2)N(C)CC3 | 4.12 µM
